Measurements published in US11504364B2, “Inhibitors of fibroblast activation protein” (Praxis Biotech LLC, priority 2018, dated 2022).

Columns and labels:
[1] = biological target: recombinant human DPPIV (rhDPPIV) (Homo sapiens (Human), UniProt P27487); test: DPPIV enzymatic activity assay; type: biochemical; conditions: Table 3B
[2] = biological target: recombinant human DPP9 (rhDPP9) (Homo sapiens (Human), UniProt Q86TI2); test: Inhibition of DPP9 activity, 10 ng rhDPP9, H-Gly-Pro-AMC; type: biochemical; conditions: Table 3B
Sequence of recombinant human DPP9 (rhDPP9) (Q86TI2 whole entry): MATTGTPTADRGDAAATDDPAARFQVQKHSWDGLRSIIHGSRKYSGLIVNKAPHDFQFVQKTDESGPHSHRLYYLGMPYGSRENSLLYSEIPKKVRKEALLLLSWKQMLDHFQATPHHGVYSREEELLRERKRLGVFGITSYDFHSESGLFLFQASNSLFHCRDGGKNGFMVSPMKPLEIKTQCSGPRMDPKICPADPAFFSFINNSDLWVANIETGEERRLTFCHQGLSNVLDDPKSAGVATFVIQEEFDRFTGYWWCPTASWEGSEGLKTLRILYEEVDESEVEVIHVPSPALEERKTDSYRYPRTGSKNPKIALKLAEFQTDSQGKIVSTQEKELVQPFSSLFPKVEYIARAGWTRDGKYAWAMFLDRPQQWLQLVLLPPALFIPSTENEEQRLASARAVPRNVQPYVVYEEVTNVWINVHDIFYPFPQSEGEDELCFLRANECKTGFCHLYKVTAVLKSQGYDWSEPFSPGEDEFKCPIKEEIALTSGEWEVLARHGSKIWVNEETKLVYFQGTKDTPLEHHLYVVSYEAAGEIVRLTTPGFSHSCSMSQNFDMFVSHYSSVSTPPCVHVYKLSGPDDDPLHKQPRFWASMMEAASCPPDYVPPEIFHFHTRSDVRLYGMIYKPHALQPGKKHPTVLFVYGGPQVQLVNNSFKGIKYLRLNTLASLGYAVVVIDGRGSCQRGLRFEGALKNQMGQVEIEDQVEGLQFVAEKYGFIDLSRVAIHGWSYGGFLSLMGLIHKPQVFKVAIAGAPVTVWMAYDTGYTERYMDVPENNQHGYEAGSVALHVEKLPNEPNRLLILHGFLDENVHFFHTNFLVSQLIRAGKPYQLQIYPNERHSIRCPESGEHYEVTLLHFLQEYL

Sequence of recombinant human DPPIV (rhDPPIV) (P27487 whole entry): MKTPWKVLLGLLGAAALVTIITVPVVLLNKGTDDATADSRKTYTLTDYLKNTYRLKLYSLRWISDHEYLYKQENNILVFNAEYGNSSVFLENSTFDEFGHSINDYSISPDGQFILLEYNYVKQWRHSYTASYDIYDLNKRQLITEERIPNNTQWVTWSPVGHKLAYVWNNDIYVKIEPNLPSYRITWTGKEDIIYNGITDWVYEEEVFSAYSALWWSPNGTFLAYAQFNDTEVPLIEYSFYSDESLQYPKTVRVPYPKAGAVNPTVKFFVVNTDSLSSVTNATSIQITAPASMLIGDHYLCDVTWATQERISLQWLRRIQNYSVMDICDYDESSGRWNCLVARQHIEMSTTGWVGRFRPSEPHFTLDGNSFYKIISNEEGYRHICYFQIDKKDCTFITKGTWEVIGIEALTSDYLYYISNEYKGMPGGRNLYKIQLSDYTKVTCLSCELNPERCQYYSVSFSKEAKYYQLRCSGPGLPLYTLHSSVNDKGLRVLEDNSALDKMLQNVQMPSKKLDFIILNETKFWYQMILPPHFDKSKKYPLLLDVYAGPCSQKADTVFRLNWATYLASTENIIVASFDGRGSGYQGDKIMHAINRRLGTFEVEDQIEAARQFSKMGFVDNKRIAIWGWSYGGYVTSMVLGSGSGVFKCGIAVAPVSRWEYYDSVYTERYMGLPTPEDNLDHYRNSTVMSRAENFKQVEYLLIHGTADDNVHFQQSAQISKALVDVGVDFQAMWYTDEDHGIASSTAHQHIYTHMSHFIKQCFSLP

Compound	IC50 [1]	IC50 [2]
N#C[C@@H]1CC(F)(F)CN1C(=O)CNC(=O)c1ccnc2ccc(-c3cccnc3)cc12 [Compound 5, (S)—N-(2-(2-cyano-4,4-difluoropyrrolidin-1-yl)-2-oxoethyl)-6-(pyridin-3-yl)quinoline-4-carboxamide]	> 10000 nM	< 1000 nM
N#C[C@@H]1CC(F)(F)CN1C(=O)CNC(=O)c1ccnc2ccc(-c3ccncc3)cc12 [Compound 6, (S)—N-(2-(2-cyano-4,4-difluoropyrrolidin-1-yl)-2-oxoethyl)-6-(pyridin-4-yl)quinoline-4-carboxamide]	> 10000 nM	< 1000 nM
CC(C)(C)c1ccc(-c2ccc3nccc(C(=O)NCC(=O)N4CC(F)(F)C[C@H]4C#N)c3c2)cc1 [Compound 7, (S)-6-(4-(tert-butyl)phenyl)-N-(2-(2-cyano-4,4-difluoropyrrolidin-1-yl)-2-oxoethyl)quinoline-4-carboxamide]	> 10000 nM	< 1000 nM
Cn1ccc2cc(-c3ccc4nccc(C(=O)NCC(=O)N5CC(F)(F)C[C@H]5C#N)c4c3)ccc21 [Compound 8, (S)—N-(2-(2-cyano-4,4-difluoropyrrolidin-1-yl)-2-oxoethyl)-6-(1-methyl-1H-indol-5-yl)quinoline-4-carboxamide]	1000 to 10000 nM	< 1000 nM
N#C[C@@H]1CC(F)(F)CN1C(=O)CNC(=O)c1ccnc2ccc(-c3ccc4[nH]ccc4c3)cc12 [Compound 9, (S)—N-(2-(2-cyano-4,4-difluoropyrrolidin-1-yl)-2-oxoethyl)-6-(1H-indol-5-yl)quinoline-4-carboxamide]	> 10000 nM	< 1000 nM
Cn1cc(-c2ccc3nccc(C(=O)NCC(=O)N4CC(F)(F)C[C@H]4C#N)c3c2)cn1 [Compound 10, (S)—N-(2-(2-cyano-4,4-difluoropyrrolidin-1-yl)-2-oxoethyl)-6-(1-methyl-1H-pyrazol-4-yl)quinoline-4-carboxamide]	> 10000 nM	< 1000 nM
N#C[C@@H]1CC(F)(F)CN1C(=O)CNC(=O)c1ccnc2ccc(-c3cnn(C4CC4)c3)cc12 [Compound 11, (S)—N-(2-(2-cyano-4,4-difluoropyrrolidin-1-yl)-2-oxoethyl)-6-(1-cyclopropyl-1H-pyrazol-4-yl)quinoline-4-carboxamide]	1000 to 10000 nM	< 1000 nM
N#C[C@@H]1CC(F)(F)CN1C(=O)CNC(=O)c1ccnc2ccc(-c3ccc4c(c3)CCN4)cc12 [Compound 12, (S)—N-(2-(2-cyano-4,4-difluoropyrrolidin-1-yl)-2-oxoethyl)-6-(indolin-5-yl)quinoline-4-carboxamide]	> 10000 nM	< 1000 nM
CC(C)C/C=C/c1ccc2nccc(C(=O)NCC(=O)N3CC(F)(F)C[C@H]3C#N)c2c1 [Compound 13, (S,E)-N-(2-(2-cyano-4,4-difluoropyrrolidin-1-yl)-2-oxoethyl)-6-(4-methylpent-1-en-1-yl)quinoline-4-carboxamide]	> 10000 nM	< 1000 nM
N#C[C@@H]1CC(F)(F)CN1C(=O)CNC(=O)c1ccnc2ccc(/C=C/c3ccccc3)cc12 [Compound 14, (S,E)-N-(2-(2-cyano-4,4-difluoropyrrolidin-1-yl)-2-oxoethyl)-6-styrylquinoline-4-carboxamide]	> 10000 nM	< 1000 nM
CN(C)c1ccc2cc(-c3ccc4nccc(C(=O)NCC(=O)N5CC(F)(F)C[C@H]5C#N)c4c3)ccc2c1 [Compound 15, (S)—N-(2-(2-cyano-4,4-difluoropyrrolidin-1-yl)-2-oxoethyl)-6-(6-(dimethylamino)naphthalen-2-yl)quinoline-4-carboxamide]	> 10000 nM	< 1000 nM
N#C[C@@H]1CC(F)(F)CN1C(=O)CNC(=O)c1ccnc2ccc(-c3ccc(=O)[nH]c3)cc12 [Compound 17, (S)—N-(2-(2-cyano-4,4-difluoropyrrolidin-1-yl)-2-oxoethyl)-6-(6-oxo-1,6-dihydropyridin-3-yl)quinoline-4-carboxamide]	> 10000 nM	< 1000 nM
